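Five concentrations, 48 hours, 96-well plates. TGI marks complete inhibition of growth.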
Columns and labels:
Assay in all cases: growth of human tumour cells (NCI), 48 h
MALME-3M melanoma = tested on: MALME-3M melanoma
786-0 renal = tested on: 786-0 renal
A549 NSCLC = tested on: A549 NSCLC
U251 CNS = tested on: U251 CNS
IGROV1 ovarian = tested on: IGROV1 ovarian
MCF7 breast = tested on: MCF7 breast
DU-145 prostate = tested on: DU-145 prostate
HCT-15 colon = tested on: HCT-15 colon
SNB-75 CNS = tested on: SNB-75 CNS
SK-MEL-5 melanoma = tested on: SK-MEL-5 melanoma
TK-10 renal = tested on: TK-10 renal
KM12 colon = tested on: KM12 colon
SN12C renal = tested on: SN12C renal
BT-549 breast = tested on: BT-549 breast
SF-295 CNS = tested on: SF-295 CNS
OVCAR-3 ovarian = tested on: OVCAR-3 ovarian
MOLT-4 leukemia = tested on: MOLT-4 leukemia
SW-620 colon = tested on: SW-620 colon
SF-268 CNS = tested on: SF-268 CNS
HCT-116 colon = tested on: HCT-116 colon
NCI-H460 lung = tested on: NCI-H460 lung
COLO 205 colon = tested on: COLO 205 colon
HOP-92 NSCLC = tested on: HOP-92 NSCLC
PC-3 prostate = tested on: PC-3 prostate
SK-MEL-2 melanoma = tested on: SK-MEL-2 melanoma
ACHN renal = tested on: ACHN renal
NCI-H522 lung = tested on: NCI-H522 lung
A498 renal = tested on: A498 renal
SK-OV-3 ovarian = tested on: SK-OV-3 ovarian
MDA-MB-231 breast = tested on: MDA-MB-231 breast
RPMI-8226 leukemia = tested on: RPMI-8226 leukemia
SF-539 CNS = tested on: SF-539 CNS
T-47D breast = tested on: T-47D breast
SNB-19 CNS = tested on: SNB-19 CNS
MDA-MB-435 = tested on: MDA-MB-435
HOP-62 NSCLC = tested on: HOP-62 NSCLC
SK-MEL-28 melanoma = tested on: SK-MEL-28 melanoma
K-562 leukemia = tested on: K-562 leukemia
OVCAR-5 ovarian = tested on: OVCAR-5 ovarian
NCI/ADR-RES ovarian = tested on: NCI/ADR-RES ovarian
UO-31 renal = tested on: UO-31 renal
HCC-2998 colon = tested on: HCC-2998 colon
CCRF-CEM leukemia = tested on: CCRF-CEM leukemia
EKVX NSCLC = tested on: EKVX NSCLC
OVCAR-8 ovarian = tested on: OVCAR-8 ovarian
CAKI-1 renal = tested on: CAKI-1 renal
MDA-N = tested on: MDA-N
HT29 colon = tested on: HT29 colon
M14 melanoma = tested on: M14 melanoma
HS 578T breast = tested on: HS 578T breast
NCI-H226 lung = tested on: NCI-H226 lung
NCI-H23 lung = tested on: NCI-H23 lung
LOX IMVI melanoma = tested on: LOX IMVI melanoma
UACC-257 melanoma = tested on: UACC-257 melanoma
UACC-62 melanoma = tested on: UACC-62 melanoma

`C=CC1(CCC(Br)C(C)(C)Cl)CO1` (stereo not given) was tested, and the TGI (MALME-3M melanoma) was > 10 µM, the TGI (786-0 renal) was > 10 µM and the TGI (A549 NSCLC) was > 10 µM. The TGI (U251 CNS) was > 10 µM, the TGI (IGROV1 ovarian) was > 10 µM and the TGI (MCF7 breast) was > 10 µM. For the same molecule, the TGI (DU-145 prostate) was > 10 µM, the TGI (HCT-15 colon) was > 10 µM and the TGI (SNB-75 CNS) was > 10 µM. The TGI (SK-MEL-5 melanoma) was > 10 µM, the TGI (TK-10 renal) was > 10 µM and the TGI (KM12 colon) was > 10 µM. For the same molecule, the TGI (SN12C renal) was > 10 µM, the TGI (BT-549 breast) was > 10 µM and the TGI (SF-295 CNS) was > 10 µM. The TGI (OVCAR-3 ovarian) was > 10 µM, the TGI (MOLT-4 leukemia) was > 10 µM and the TGI (SW-620 colon) was > 10 µM. For the same molecule, the TGI (SF-268 CNS) was > 10 µM, the TGI (HCT-116 colon) was > 10 µM and the TGI (NCI-H460 lung) was > 10 µM. For the same molecule, the TGI (COLO 205 colon) was > 10 µM, the TGI (HOP-92 NSCLC) was > 10 µM and the TGI (PC-3 prostate) was > 10 µM. For the same molecule, the TGI (SK-MEL-2 melanoma) was > 10 µM, the TGI (ACHN renal) was > 10 µM and the TGI (NCI-H522 lung) was > 10 µM. For the same molecule, the TGI (A498 renal) was > 10 µM, the TGI (SK-OV-3 ovarian) was > 10 µM and the TGI (MDA-MB-231 breast) was > 10 µM. The TGI (RPMI-8226 leukemia) was > 10 µM, the TGI (SF-539 CNS) was > 10 µM and the TGI (T-47D breast) was > 10 µM. The TGI (SNB-19 CNS) was > 10 µM, the TGI (MDA-MB-435) was > 10 µM and the TGI (HOP-62 NSCLC) was > 10 µM. The TGI (SK-MEL-28 melanoma) was > 10 µM, the TGI (K-562 leukemia) was > 10 µM and the TGI (OVCAR-5 ovarian) was > 10 µM. The TGI (NCI/ADR-RES ovarian) was > 10 µM, the TGI (UO-31 renal) was > 10 µM and the TGI (HCC-2998 colon) was > 10 µM. The TGI (CCRF-CEM leukemia) was > 10 µM, the TGI (EKVX NSCLC) was > 10 µM and the TGI (OVCAR-8 ovarian) was > 10 µM. The TGI (CAKI-1 renal) was > 10 µM, the TGI (MDA-N) was > 10 µM and the TGI (HT29 colon) was > 10 µM. For the same molecule, the TGI (M14 melanoma) was > 10 µM.

With `C=C1C(=O)O[C@H]2C(=O)[C@H](C)CCC[C@@](C)(O)/C=C\C[C@@]3(C)O[C@@H]3C[C@@H]12` the TGI (786-0 renal) was 25 µM, the TGI (A549 NSCLC) was 38.6 µM and the TGI (U251 CNS) was 34.4 µM. It also gave a TGI (HS 578T breast) of 90.2 µM, a TGI (IGROV1 ovarian) of 41.6 µM and a TGI (MCF7 breast) of 37.5 µM. For the same molecule, the TGI (DU-145 prostate) was 27.6 µM, the TGI (HCT-15 colon) was 25.9 µM and the TGI (NCI-H226 lung) was > 100 µM. The TGI (SK-MEL-5 melanoma) was 29 µM, the TGI (TK-10 renal) was 15.1 µM and the TGI (KM12 colon) was 39.3 µM. The TGI (NCI-H23 lung) was 68.8 µM, the TGI (SN12C renal) was 31.3 µM and the TGI (SF-295 CNS) was 17.5 µM. It also gave a TGI (OVCAR-3 ovarian) of 24.3 µM, a TGI (SW-620 colon) of 22.1 µM and a TGI (SF-268 CNS) of 50.8 µM. The TGI (HCT-116 colon) was 20.2 µM, the TGI (NCI-H460 lung) was 76.1 µM and the TGI (COLO 205 colon) was 30.4 µM. The TGI (HOP-92 NSCLC) was 23.8 µM, the TGI (PC-3 prostate) was 38.6 µM and the TGI (SK-MEL-2 melanoma) was 41.5 µM. For the same molecule, the TGI (ACHN renal) was 20.5 µM, the TGI (LOX IMVI melanoma) was 32.2 µM and the TGI (NCI-H522 lung) was 9.08 µM. For the same molecule, the TGI (A498 renal) was 56.1 µM, the TGI (SK-OV-3 ovarian) was > 100 µM and the TGI (MDA-MB-231 breast) was 43.6 µM. For the same molecule, the TGI (RPMI-8226 leukemia) was 33.7 µM, the TGI (SF-539 CNS) was 36.9 µM and the TGI (T-47D breast) was 42.3 µM. The TGI (SNB-19 CNS) was > 100 µM, the TGI (MDA-MB-435) was 36.1 µM and the TGI (OVCAR-5 ovarian) was 3.64 µM. For the same molecule, the TGI (UACC-257 melanoma) was 31 µM, the TGI (NCI/ADR-RES ovarian) was > 100 µM and the TGI (UO-31 renal) was 27.6 µM. For the same molecule, the TGI (CCRF-CEM leukemia) was 12.3 µM, the TGI (OVCAR-8 ovarian) was 48 µM and the TGI (CAKI-1 renal) was 27 µM. For the same molecule, the TGI (MDA-N) was 34.8 µM, the TGI (UACC-62 melanoma) was 37.8 µM and the TGI (HT29 colon) was 28.4 µM. It also gave a TGI (M14 melanoma) of 24 µM.
